Common to all, as to type: in vivo
Experiment [1] deals with Solanum nigrum (SOLNI). The experiment is described as follows: Pre-emergence biological efficacy, glasshouse pot test. Particulars: 312 h. In outline:
(§1)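 Sow seeds in pots of standard soil; after one day in the glasshouse, spray test compound (1000 or 250 g/ha) in aqueous acetone/water with 0.5% Tween 20. Grow 13 days at 24/16 °C day/night, then score damage from 0 to 100.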

In experiment [2] the test system is Echinochloa crus-galli (ECHCG). The description is as above. Particulars: 312 h. The gist of the method: as §1
For experiment [3], the system named is Ipomea hederaceae (IPOHE). The experiment is described as above. The settings on record: Ipomoea hederacea, 312 h. The gist of the method:
as §1

Experiment [4] concerns Setaria faberi (SETFA). The description is as above. Particulars: 312 h. The gist of the method:
as §1

For experiment [5], the system named is Amaranthus retoflexus (AMARE). Described as above. The settings on record: Amaranthus retroflexus, 312 h. The gist of the method: as §1
Experiment [6] relates to Alopecurus myosuroides (ALOMY). The experiment is described as above. The settings on record: 312 h. The gist of the method:
as §1

The subject of experiment [7] is Solanum nigrum (SOLNI). The experiment is described as follows: Post-emergence biological efficacy, glasshouse pot test. Particulars: 312 h. In outline:
(§2)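 Scored 13 days after spraying on a 0 (no damage) to 100 (total damage) scale. Treatment was a post-emergence spray at 1000 or 250 g/ha, from acetone/water 50:50 plus 0.5% Tween 20, onto 8-day-old plants in soil pots. Growth at 24/16° C, 14 h photoperiod, 65% humidity, watered twice daily.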

In experiment [8] the test system is Echinochloa crus-galli (ECHCG). The experiment is described as above. Particulars: 312 h. In outline: as §2
For experiment [9], the system named is Ipomea hederaceae (IPOHE). Described as above. The settings on record: Ipomoea hederacea, 312 h. The gist of the method:
as §2

The subject of experiment [10] is Setaria faberi (SETFA). The experiment is described as above. Particulars: 312 h. The gist of the method: as §2
The subject of experiment [11] is Amaranthus retoflexus (AMARE). The description is as above. Particulars: Amaranthus retroflexus, 312 h. In outline:
as §2

The subject of experiment [12] is Alopecurus myosuroides (ALOMY). The description is as above. Particulars: 312 h. In outline:
as §2

Where [13] appears, read: pre-emergence, 1,000 g/ha, evaluated after 13 days (100=total damage; 0=no damage), read-out: Percentage damage SOLNI.
[14] abbreviates: pre-emergence, 1,000 g/ha, evaluated after 13 days (100=total damage; 0=no damage), read-out: Percentage damage ECHCG.
[15] abbreviates: pre-emergence, 1,000 g/ha, evaluated after 13 days (100=total damage; 0=no damage), read-out: Percentage damage IPOHE.
The mark [16] stands for this setting: pre-emergence, 1,000 g/ha, evaluated after 13 days (100=total damage; 0=no damage), read-out: Percentage damage SETFA.
The mark [17] stands for this setting: pre-emergence, 1,000 g/ha, evaluated after 13 days (100=total damage; 0=no damage), read-out: Percentage damage AMARE.
[18] abbreviates: pre-emergence, 1,000 g/ha, evaluated after 13 days (100=total damage; 0=no damage), read-out: Percentage damage ALOMY.
The mark [19] stands for this setting: post-emergence, 1,000 g/ha, evaluated after 13 days (100=total damage; 0=no damage), read-out: Percentage damage caused to weed species, SOLNI.
The mark [20] stands for this setting: post-emergence, 1,000 g/ha, evaluated after 13 days (100=total damage; 0=no damage), read-out: Percentage damage caused to weed species, ECHCG.
The mark [21] stands for this setting: post-emergence, 1,000 g/ha, evaluated after 13 days (100=total damage; 0=no damage), read-out: Percentage damage caused to weed species, IPOHE.
Setting [22] is: post-emergence, 1,000 g/ha, evaluated after 13 days (100=total damage; 0=no damage), read-out: Percentage damage caused to weed species, SETFA.
[23] abbreviates: post-emergence, 1,000 g/ha, evaluated after 13 days (100=total damage; 0=no damage), read-out: Percentage damage caused to weed species, AMARE.
The mark [24] stands for this setting: post-emergence, 1,000 g/ha, evaluated after 13 days (100=total damage; 0=no damage), read-out: Percentage damage caused to weed species, ALOMY.
Where [25] appears, read: pre-emergence, rate 1,000 g/ha, evaluated after 13 days (100=total damage to plant; 0=no damage), read-out: Percentage damage caused to weed species, SOLNI.
The mark [26] stands for this setting: pre-emergence, rate 1,000 g/ha, evaluated after 13 days (100=total damage to plant; 0=no damage), read-out: Percentage damage caused to weed species, ECHCG.
Setting [27] is: pre-emergence, rate 1,000 g/ha, evaluated after 13 days (100=total damage to plant; 0=no damage), read-out: Percentage damage caused to weed species, IPOHE.
The mark [28] stands for this setting: pre-emergence, rate 1,000 g/ha, evaluated after 13 days (100=total damage to plant; 0=no damage), read-out: Percentage damage caused to weed species, SETFA.
Where [29] appears, read: pre-emergence, rate 1,000 g/ha, evaluated after 13 days (100=total damage to plant; 0=no damage), read-out: Percentage damage caused to weed species, AMARE.
Setting [30] is: pre-emergence, rate 1,000 g/ha, evaluated after 13 days (100=total damage to plant; 0=no damage), read-out: Percentage damage caused to weed species, ALOMY.
The mark [31] stands for this setting: Rate 1,000 g/ha, post-emergence spray, evaluated after 13 days (100=total damage to plant; 0=no damage to plant), read-out: Percentage damage caused to weed species, post-emergence, SOLNI.
Setting [32] is: Rate 1,000 g/ha, post-emergence spray, evaluated after 13 days (100=total damage to plant; 0=no damage to plant), read-out: Percentage damage caused to weed species, post-emergence, ECHCG.
[33] abbreviates: Rate 1,000 g/ha, post-emergence spray, evaluated after 13 days (100=total damage to plant; 0=no damage to plant), read-out: Percentage damage caused to weed species, post-emergence, IPOHE.
Where [34] appears, read: Rate 1,000 g/ha, post-emergence spray, evaluated after 13 days (100=total damage to plant; 0=no damage to plant), read-out: Percentage damage caused to weed species, post-emergence, SETFA.
The mark [35] stands for this setting: Rate 1,000 g/ha, post-emergence spray, evaluated after 13 days (100=total damage to plant; 0=no damage to plant), read-out: Percentage damage caused to weed species, post-emergence, AMARE.
The mark [36] stands for this setting: Rate 1,000 g/ha, post-emergence spray, evaluated after 13 days (100=total damage to plant; 0=no damage to plant), read-out: Percentage damage caused to weed species, post-emergence, ALOMY.

Consider seven compounds from patent publication US20110086759A1, “CHEMICAL COMPOUNDS” (SYNGENTA CROP PROTECTION, INC., priority 2007, published 2011).

Structures are written as SMILES.

With `COC(=O)c1nc(C2CC2)nc(NC(C)COc2ccc(C#N)cc2)c1Cl` (stereo not drawn) [Compound 4-269, 5-Chloro-4-[2-(4-cyanophenoxy)-1-methyl-ethylamino]-2-cyclopropyl-6-methoxycarbonyl-pyrimidine], the pest or weed control at 1000 g/ha was 0% in the experiment with Solanum nigrum (SOLNI) [1] (setting [13]); 0% in [2] (setting [14]); 0% in experiment [3] (setting [15]); 0% with Setaria faberi (SETFA) [4] (setting [16]); 40% in experiment [5] (setting [17]); 0% in [6] (setting [18]). The pest or weed control at 1000 g/ha stood at 70% in the experiment on Solanum nigrum (SOLNI) [7] (setting [19]); 0% in experiment [8] (setting [20]); 90% in [9] (setting [21]); 60% in the experiment on Setaria faberi (SETFA) [10] (setting [22]); 100% in [11] (setting [23]); 20% in [12] (setting [24]).
On to `CCN(Cc1ccc(OC)c(OC)c1)c1nc(C2CC2)nc(C(=O)OC)c1Cl` [Compound 6-112, 5-Chloro-2-cyclopropyl-4-[N-(3,4-dimethoxy-phenylmethyl)-N-ethyl-amino]-6-methoxycarbonyl-pyrimidine], for which the pest or weed control at 1000 g/ha in the experiment with Solanum nigrum (SOLNI) [1] (setting [25]) worked out at 10%; in experiment [2] (setting [26]), 10%; in experiment [3] (setting [27]) it was 60%; in the experiment with Setaria faberi (SETFA) [4] (setting [28]), 0%; in [5] (setting [29]), 60%; in experiment [6] (setting [30]), 10%. For the same compound, the pest or weed control at 1000 g/ha in the experiment on Solanum nigrum (SOLNI) [7] (setting [31]) amounted to 80%; in experiment [8] (setting [32]) it was 70%; in [9] (setting [33]), 80%; with Setaria faberi (SETFA) [10] (setting [34]), 80%; in [11] (setting [35]), 100%; in experiment [12] (setting [36]), 30%.
As to `COC(=O)c1nc(-c2ccc(OC)c(OC)c2)nc(NCc2ccco2)c1Cl` [Compound 260-48, 5-Chloro-2-(3,4-dimethoxyphenyl)-4-(furan-2-ylmethyl-amino)-6-methoxy-carbonylpyrimidine], the pest or weed control at 1000 g/ha (with Solanum nigrum (SOLNI) [1] (setting [25]); in experiment [2] (setting [26]); in experiment [3] (setting [27]); in the experiment with Setaria faberi (SETFA) [4] (setting [28]); in [5] (setting [29]); in experiment [6] (setting [30])) was 0% each time. Also, the pest or weed control at 1000 g/ha was found to be 30% with Solanum nigrum (SOLNI) [7] (setting [31]); 0% in experiment [8] (setting [32]); 0% in experiment [9] (setting [33]); 0% in the experiment with Setaria faberi (SETFA) [10] (setting [34]); 20% in [11] (setting [35]); 0% in [12] (setting [36]).
As for `COC(=O)c1nc(C2CC2)nc(NCc2cccs2)c1Cl` [Compound 4-140, 5-Chloro-2-cyclopropyl-6-methoxycarbonyl-4-(thiophen-2-ylmethylamino)-pyrimidine], the pest or weed control at 1000 g/ha with Solanum nigrum (SOLNI) [1] (setting [13]) was 100%; in experiment [2] (setting [14]), 40%; in experiment [3] (setting [15]), 80%; in the experiment with Setaria faberi (SETFA) [4] (setting [16]), 50%; in [5] (setting [17]) it was 100%; in experiment [6] (setting [18]), 20%. Also, the pest or weed control at 1000 g/ha in the experiment on Solanum nigrum (SOLNI) [7] (setting [19]) was found to be 90%; in experiment [8] (setting [20]) it was 60%; in [9] (setting [21]) it was 90%; in the experiment on Setaria faberi (SETFA) [10] (setting [22]), 70%; in experiment [11] (setting [23]), 90%; in experiment [12] (setting [24]), 30%.
Regarding `COC(=O)c1nc(C2CC2)nc(NCC(=O)OCc2ccccc2)c1Cl` [Compound 4-265, 5-Chloro-2-cyclopropyl-6-methoxycarbonyl-4-(phenylmethoxy-carbonylmethyl-amino)pyrimidine], the pest or weed control at 1000 g/ha in the experiment on Solanum nigrum (SOLNI) [1] (setting [13]) was determined as 90%; in experiment [2] (setting [14]), 30%; in experiment [3] (setting [15]), 90%; in the experiment with Setaria faberi (SETFA) [4] (setting [16]), 30%; in experiment [5] (setting [17]), 100%; in experiment [6] (setting [18]), 10%. Further, the pest or weed control at 1000 g/ha with Solanum nigrum (SOLNI) [7] (setting [19]) worked out at 70%; in [8] (setting [20]), 20%; in experiment [9] (setting [21]), 60%; in the experiment with Setaria faberi (SETFA) [10] (setting [22]), 40%; in experiment [11] (setting [23]) it was 100%; in experiment [12] (setting [24]) it was 20%.
For the compound `COC(=O)c1nc(C2CC2)nc(NCc2ccco2)c1Cl` [Compound 4-125, 5-Chloro-2-cyclopropyl-4-(furan-2-ylmethyl-amino)-6-methoxy-carbonylpyrimidine], the pest or weed control at 1000 g/ha in the experiment on Solanum nigrum (SOLNI) [1] (setting [13]) stood at 90%; in experiment [2] (setting [14]), 80%; in [3] (setting [15]), 100%; with Setaria faberi (SETFA) [4] (setting [16]) it was 80%; in experiment [5] (setting [17]), 100%; in [6] (setting [18]), 70%. Also, the pest or weed control at 1000 g/ha in the experiment on Solanum nigrum (SOLNI) [7] (setting [19]) is 100%; in experiment [8] (setting [20]), 80%; in experiment [9] (setting [21]), 100%; with Setaria faberi (SETFA) [10] (setting [22]), 90%; in [11] (setting [23]) it was 100%; in experiment [12] (setting [24]) it was 60%.
Take `O=C(O)c1nc(C2CC2)nc(NCc2ccccc2)c1Cl` [Compound 1-60, 5-Chloro-2-cyclopropyl-4-phenylmethyamino pyrimidtne-6-carboxylic acid]: the pest or weed control at 1000 g/ha in the experiment with Solanum nigrum (SOLNI) [1] (setting [13]) was 90%; in [2] (setting [14]), 20%; in [3] (setting [15]) it was 100%; with Setaria faberi (SETFA) [4] (setting [16]), 0%; in experiment [5] (setting [17]), 90%; in experiment [6] (setting [18]), 20%. Besides, the pest or weed control at 1000 g/ha was 90% with Solanum nigrum (SOLNI) [7] (setting [19]); 70% in experiment [8] (setting [20]); 100% in experiment [9] (setting [21]); 90% in the experiment on Setaria faberi (SETFA) [10] (setting [22]); 100% in experiment [11] (setting [23]); 50% in experiment [12] (setting [24]).
